Among the data in ChEMBL document CHEMBL3045554, “Synthesis and antimicrobial screening of N-(1-methyl-1H-pyrazole-4-carbonyl)-thiourea derivatives” (2012) are MIC values, retold here.

Converted amounts (≈) assume the structure as drawn. Where only a bound is given, the exact number is not on record here.

Holding throughout (format): functional
Assay [1] deals with Staphylococcus aureus. The assay is described as follows: Antimicrobial activity against Staphylococcus aureus by microdilution method. On the technique in general: Broth dilution looks for growth in wells or tubes with falling amounts of substance.
Assay [2] has as its system Pseudomonas aeruginosa. The assay is described as follows: Antimicrobial activity against Pseudomonas aeruginosa 5541 by microdilution method.
For assay [3], the system named is Escherichia coli. The assay is described as follows: Antimicrobial activity against Escherichia coli 637/2007 by microdilution method.
Assay [4] relates to Bacillus subtilis. The assay can be described thus: Antimicrobial activity against Bacillus subtilis 10.10.2006 by microdilution method.
The subject of assay [5] is Klebsiella pneumoniae. The assay is described as follows: Antimicrobial activity against Klebsiella pneumoniae 126/2007 by microdilution method.
The test system of assay [6] is Acinetobacter baumannii. The assay is described as follows: Antimicrobial activity against Acinetobacter baumannii 15896 by microdilution method.
For assay [7], the system named is Enterococcus faecalis. The assay is described as follows: Antimicrobial activity against Enterococcus faecalis 13773 by microdilution method.

Consider `CC(C)c1ccc(NC(=S)NC(=O)c2cnn(C)c2)cc1`, for which the MIC in assay [1], in assay [2], in assay [3], in assay [4], in assay [5] and in assay [6] was > 1000 µg/mL throughout. In addition, the MIC (in general, the smallest concentration in the dilution series that meets the test's criterion for growth inhibition) in assay [7] is > 1000 µg/mL.

Turning to `CCc1ccc(NC(=S)NC(=O)c2cnn(C)c2)cc1`, the MIC in assay [1], in assay [2], in assay [3], in assay [4], in assay [5] and in assay [6] was > 1000 µg/mL each time. The minimum inhibitory concentration (MIC) in assay [7] is > 1000 µg/mL.

Consider `CCC(C)c1ccc(NC(=S)NC(=O)c2cnn(C)c2)cc1` (configuration not stated), for which the MIC in assay [1], in assay [2], in assay [3], in assay [4], in assay [5] and in assay [6] was > 1000 µg/mL each time. Also, the MIC in assay [7] was > 1000 µg/mL.

For the compound `Cc1ccccc1NC(=S)NC(=O)c1cnn(C)c1`, the MIC in assay [1], in assay [2], in assay [3], in assay [4], in assay [5] and in assay [6] was > 1000 µg/mL in each case. For the same compound, in assay [7], the MIC was > 1000 µg/mL.

With `Cn1cc(C(=O)NC(=S)Nc2ccccc2C(C)(C)C)cn1`, the MIC in assay [1] was > 1000 µg/mL; in assay [2], > 1000 µg/mL; in assay [3] it was > 1000 µg/mL; in assay [4], > 1000 µg/mL; in assay [5] it was > 1000 µg/mL; in assay [6] it was 1000 µg/mL (≈ 3.16 mM). For the same compound, the MIC in assay [7] was > 1000 µg/mL.

`CCC(C)c1ccccc1NC(=S)NC(=O)c1cnn(C)c1` (configuration not stated): the MIC in assay [1], in assay [2], in assay [3], in assay [4], in assay [5] and in assay [6] was > 1000 µg/mL in each case. Also, the MIC in assay [7] is > 1000 µg/mL.
